Results: ChEMBL document CHEMBL1681665, “3-amido-4-anilinocinnolines as a novel class of CSF-1R inhibitor” (Bioorg Med Chem Lett, 2011)
≈ marks a conversion by molar mass, not a printed value. Where “and” joins values, the source holds several entries; their conditions need not be identical. Identical values can stand only once.

Columns and labels:
NIH3T3 = assay: Antiproliferative activity against mouse 3T3 cells expressing human CSF1R after 72 hrs by Celltiter assay; type: functional
[1] = Aqueous solubility of the compound; settings: aqueous medium
[2] = Fraction unbound in plasma
[3] = Clearance in mouse at 3 mg/kg, iv and 10 mg/kg, po; type: ADME, organism-based; settings: in vivo
[4] = Half life in mouse at 3 mg/kg, iv and 10 mg/kg, po; type: ADME, organism-based; settings: in vivo
[5] = Volume of distribution at steady state in mouse at 3 mg/kg, iv and 10 mg/kg, po; type: ADME, organism-based; settings: in vivo, read-out: Vdss
[6] = Bioavailability in mouse at 3 mg/kg, iv and 10 mg/kg, po; type: ADME, organism-based; settings: in vivo
[7] = Clearance in rat at 3 mg/kg, iv and 10 mg/kg, po; type: ADME, organism-based; settings: in vivo
[8] = Half life in rat at 3 mg/kg, iv and 10 mg/kg, po; type: ADME, organism-based; settings: in vivo
[9] = Volume of distribution at steady state in rat at 3 mg/kg, iv and 10 mg/kg, po; type: ADME, organism-based; settings: in vivo, read-out: Vdss
[10] = Bioavailability in rat at 3 mg/kg, iv and 10 mg/kg, po; type: ADME, organism-based; settings: in vivo
[11] = Clearance in dog at 3 mg/kg, iv and 5 mg/kg, po; type: ADME, organism-based, Canis lupus familiaris; settings: in vivo
[12] = Half life in dog at 3 mg/kg, iv and 5 mg/kg, po; type: ADME, organism-based, Canis lupus familiaris; settings: in vivo
[13] = Volume of distribution at steady state in dog at 3 mg/kg, iv and 5 mg/kg, po; type: ADME, organism-based, Canis lupus familiaris; settings: in vivo, read-out: Vdss
[14] = Bioavailability in dog at 3 mg/kg, iv and 5 mg/kg, po; type: ADME, organism-based, Canis lupus familiaris; settings: in vivo
[15] = target: Macrophage colony-stimulating factor 1 receptor (Homo sapiens) (UniProt P07333); assay: Inhibition of CSF1R at 1 uM
[16] = target: Macrophage colony-stimulating factor 1 receptor (Homo sapiens) (UniProt P07333); assay: Inhibition of CSF1R at 0.1 uM
[17] = target: Mast/stem cell growth factor receptor Kit (Homo sapiens) (UniProt P10721); assay: Inhibition of c-Kit at 1 uM
[18] = target: Mast/stem cell growth factor receptor Kit (Homo sapiens) (UniProt P10721); assay: Inhibition of c-Kit at 0.1 uM
[19] = target: T1, NUAK family SNF1-like kinase 1 (Homo sapiens) (UniProt O60285); assay: Inhibition of ARK5 at 1 uM
T1 sequence (whole entry): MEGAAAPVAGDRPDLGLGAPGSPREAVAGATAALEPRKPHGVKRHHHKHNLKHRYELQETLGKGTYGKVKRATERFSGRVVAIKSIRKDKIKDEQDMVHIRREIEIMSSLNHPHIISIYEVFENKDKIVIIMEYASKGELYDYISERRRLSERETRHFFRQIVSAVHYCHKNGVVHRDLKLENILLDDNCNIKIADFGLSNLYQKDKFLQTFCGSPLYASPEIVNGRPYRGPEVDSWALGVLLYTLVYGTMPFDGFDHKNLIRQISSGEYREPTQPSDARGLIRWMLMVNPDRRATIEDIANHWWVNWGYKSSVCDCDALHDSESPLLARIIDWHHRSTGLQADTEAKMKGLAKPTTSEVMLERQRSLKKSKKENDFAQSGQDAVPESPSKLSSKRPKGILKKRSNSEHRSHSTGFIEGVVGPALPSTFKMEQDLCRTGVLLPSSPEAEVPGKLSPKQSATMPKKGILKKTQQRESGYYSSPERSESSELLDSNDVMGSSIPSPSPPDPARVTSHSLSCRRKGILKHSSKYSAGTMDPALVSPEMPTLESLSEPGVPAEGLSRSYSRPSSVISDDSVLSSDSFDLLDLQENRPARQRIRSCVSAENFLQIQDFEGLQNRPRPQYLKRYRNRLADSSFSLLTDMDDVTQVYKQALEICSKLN

[20] = target: T1, NUAK family SNF1-like kinase 1 (Homo sapiens); assay: Inhibition of ARK5 at 0.1 uM
[21] = target: Ribosomal protein S6 kinase alpha-1 (Homo sapiens) (UniProt Q15418); assay: Inhibition of Rsk1 at 1 uM
[22] = target: Ribosomal protein S6 kinase alpha-1 (Homo sapiens) (UniProt Q15418); assay: Inhibition of Rsk1 at 0.1 uM
[23] = target: Maternal embryonic leucine zipper kinase (Homo sapiens) (UniProt Q14680); assay: Inhibition of MELK at 1 uM
[24] = target: Maternal embryonic leucine zipper kinase (Homo sapiens) (UniProt Q14680); assay: Inhibition of MELK at 0.1 uM

Sequence of Macrophage colony-stimulating factor 1 receptor (Homo sapiens) (P07333 whole entry): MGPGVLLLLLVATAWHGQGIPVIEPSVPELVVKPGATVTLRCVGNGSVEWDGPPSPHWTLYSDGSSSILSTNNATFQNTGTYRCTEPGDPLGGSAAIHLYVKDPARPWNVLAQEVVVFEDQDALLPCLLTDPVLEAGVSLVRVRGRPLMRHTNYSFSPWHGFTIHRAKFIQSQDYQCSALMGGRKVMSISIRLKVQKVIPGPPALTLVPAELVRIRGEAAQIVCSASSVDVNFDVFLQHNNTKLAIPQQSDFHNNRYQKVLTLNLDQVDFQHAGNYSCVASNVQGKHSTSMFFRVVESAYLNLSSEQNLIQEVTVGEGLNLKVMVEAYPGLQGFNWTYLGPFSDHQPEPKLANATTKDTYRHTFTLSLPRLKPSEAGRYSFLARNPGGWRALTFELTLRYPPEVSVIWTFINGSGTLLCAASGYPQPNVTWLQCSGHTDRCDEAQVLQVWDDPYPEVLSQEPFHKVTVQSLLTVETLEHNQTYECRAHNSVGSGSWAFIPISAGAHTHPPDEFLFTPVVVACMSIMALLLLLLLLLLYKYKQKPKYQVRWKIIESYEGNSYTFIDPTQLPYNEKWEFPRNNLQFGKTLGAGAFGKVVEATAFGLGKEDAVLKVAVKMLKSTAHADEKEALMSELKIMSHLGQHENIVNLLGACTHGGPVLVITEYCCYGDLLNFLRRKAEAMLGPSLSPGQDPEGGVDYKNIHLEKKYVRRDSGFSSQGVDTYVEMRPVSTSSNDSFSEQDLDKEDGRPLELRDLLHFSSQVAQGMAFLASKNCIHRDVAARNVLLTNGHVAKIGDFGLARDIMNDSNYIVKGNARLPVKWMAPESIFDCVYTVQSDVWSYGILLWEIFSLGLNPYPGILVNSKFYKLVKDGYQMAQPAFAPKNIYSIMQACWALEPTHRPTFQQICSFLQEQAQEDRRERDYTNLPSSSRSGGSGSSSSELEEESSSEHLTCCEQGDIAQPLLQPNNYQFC
Sequence of Maternal embryonic leucine zipper kinase (Homo sapiens) (Q14680 whole entry, looked up): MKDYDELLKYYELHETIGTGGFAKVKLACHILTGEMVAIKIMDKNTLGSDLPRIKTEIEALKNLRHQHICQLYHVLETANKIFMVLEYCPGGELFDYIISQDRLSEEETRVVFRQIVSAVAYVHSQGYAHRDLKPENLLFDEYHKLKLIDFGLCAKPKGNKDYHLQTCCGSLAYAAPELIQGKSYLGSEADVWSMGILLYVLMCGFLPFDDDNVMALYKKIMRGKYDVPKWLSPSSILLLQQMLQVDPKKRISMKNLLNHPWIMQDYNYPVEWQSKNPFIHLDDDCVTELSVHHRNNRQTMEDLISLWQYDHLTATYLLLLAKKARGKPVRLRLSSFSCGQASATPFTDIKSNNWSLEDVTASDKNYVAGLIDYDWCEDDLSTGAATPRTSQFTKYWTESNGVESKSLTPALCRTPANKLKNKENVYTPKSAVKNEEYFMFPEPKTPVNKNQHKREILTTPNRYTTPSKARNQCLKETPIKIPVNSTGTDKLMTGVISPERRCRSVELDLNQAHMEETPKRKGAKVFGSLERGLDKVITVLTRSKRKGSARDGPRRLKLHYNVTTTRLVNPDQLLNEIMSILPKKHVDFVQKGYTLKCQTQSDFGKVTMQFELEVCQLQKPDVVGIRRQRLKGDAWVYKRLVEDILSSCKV
Sequence of Ribosomal protein S6 kinase alpha-1 (Homo sapiens) (Q15418 whole entry): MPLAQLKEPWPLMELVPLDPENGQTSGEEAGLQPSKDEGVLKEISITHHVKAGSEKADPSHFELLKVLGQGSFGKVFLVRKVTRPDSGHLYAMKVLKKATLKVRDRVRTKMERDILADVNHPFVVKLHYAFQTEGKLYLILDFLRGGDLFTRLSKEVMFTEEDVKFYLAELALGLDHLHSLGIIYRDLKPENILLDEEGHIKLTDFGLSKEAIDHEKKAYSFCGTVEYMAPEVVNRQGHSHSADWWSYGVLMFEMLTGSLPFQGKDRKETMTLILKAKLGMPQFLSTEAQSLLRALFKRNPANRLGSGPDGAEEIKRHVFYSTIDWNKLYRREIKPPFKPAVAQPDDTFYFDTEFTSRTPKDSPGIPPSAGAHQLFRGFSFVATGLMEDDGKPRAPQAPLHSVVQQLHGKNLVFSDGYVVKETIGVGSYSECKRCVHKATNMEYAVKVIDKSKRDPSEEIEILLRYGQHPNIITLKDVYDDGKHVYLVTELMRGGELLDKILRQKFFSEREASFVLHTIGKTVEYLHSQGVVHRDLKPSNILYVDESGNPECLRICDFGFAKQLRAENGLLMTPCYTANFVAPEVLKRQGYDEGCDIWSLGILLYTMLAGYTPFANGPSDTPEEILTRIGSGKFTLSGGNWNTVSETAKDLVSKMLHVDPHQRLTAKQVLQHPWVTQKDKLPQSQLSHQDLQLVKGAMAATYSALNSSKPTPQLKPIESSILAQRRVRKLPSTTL
Sequence of Mast/stem cell growth factor receptor Kit (Homo sapiens) (P10721 whole entry): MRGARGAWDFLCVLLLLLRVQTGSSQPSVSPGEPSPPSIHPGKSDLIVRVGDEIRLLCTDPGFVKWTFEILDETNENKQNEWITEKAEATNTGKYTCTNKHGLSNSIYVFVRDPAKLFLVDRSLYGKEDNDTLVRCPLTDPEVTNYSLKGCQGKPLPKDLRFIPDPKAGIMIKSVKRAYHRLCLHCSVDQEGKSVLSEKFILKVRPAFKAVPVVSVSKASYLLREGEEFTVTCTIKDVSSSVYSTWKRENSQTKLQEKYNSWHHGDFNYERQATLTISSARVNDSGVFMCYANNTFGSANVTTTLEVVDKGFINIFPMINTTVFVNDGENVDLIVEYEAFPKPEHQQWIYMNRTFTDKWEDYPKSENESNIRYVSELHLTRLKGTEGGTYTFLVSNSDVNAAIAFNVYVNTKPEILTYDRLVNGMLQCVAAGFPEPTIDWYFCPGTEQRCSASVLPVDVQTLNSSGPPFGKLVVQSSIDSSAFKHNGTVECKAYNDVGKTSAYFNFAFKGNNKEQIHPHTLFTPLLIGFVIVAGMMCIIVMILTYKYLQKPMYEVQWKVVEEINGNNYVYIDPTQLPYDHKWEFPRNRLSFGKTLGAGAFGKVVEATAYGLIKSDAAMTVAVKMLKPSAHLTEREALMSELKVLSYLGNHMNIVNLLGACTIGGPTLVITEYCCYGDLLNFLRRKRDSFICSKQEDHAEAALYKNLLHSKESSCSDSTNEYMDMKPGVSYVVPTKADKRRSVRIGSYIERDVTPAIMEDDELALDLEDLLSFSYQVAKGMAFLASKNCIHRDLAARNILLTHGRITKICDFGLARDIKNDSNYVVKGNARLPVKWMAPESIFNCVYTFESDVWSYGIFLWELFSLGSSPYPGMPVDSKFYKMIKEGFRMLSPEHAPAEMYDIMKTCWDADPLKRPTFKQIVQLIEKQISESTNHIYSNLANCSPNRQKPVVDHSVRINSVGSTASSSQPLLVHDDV

Structure (SMILES) | Activity (NIH3T3) | solubility [1] [µM] | fraction unbound [2] | also measured
COc1cc2nnc(C(N)=O)c(Nc3cccc(Cl)c3F)c2cc1OC | 0.08 µM and 0.12 µM | < 1 |  | 
COc1cc2nnc(C(N)=O)c(Nc3ccc(F)cc3F)c2cc1OC | 0.16 µM and 0.4 µM | 3 (≈ 1.08 µg/mL) |  | 
CCOc1cc2nnc(C(N)=O)c(Nc3cc(C)ccc3F)c2cc1N1CCN(C)CC1 | 0.04 µM and 0.09 µM | 120 (≈ 52.6 µg/mL) | 0.11 | 
COc1cc2nnc(C(N)=O)c(Nc3cccc(Cl)c3Cl)c2cc1OC | 0.05 µM and 0.09 µM | < 1 |  | 
CCOc1cc2nnc(C(N)=O)c(Nc3ccc(C)cc3F)c2cc1N1CCN(C)CC1 |  | 27 (≈ 11.8 µg/mL) | 0.016 | clearance [3]: 12 mL/min/kg; half-life [4]: 0.9 h; Vd [5]: 0.6 L/kg; bioavailability [6]: 82%; clearance [7]: 10 mL/min/kg; half-life [8]: 9.7 h; Vd [9]: 2.8 L/kg; bioavailability [10]: 90%; clearance [11]: 2 mL/min/kg; half-life [12]: 12.6 h; Vd [13]: 1.8 L/kg; bioavailability [14]: 78%
CCOc1cc2nnc(C(N)=O)c(Nc3ccc(F)cc3F)c2cc1N1CCN(C)CC1 |  |  | 0.039 | inhibition [15]: 95%; inhibition [16]: 100%; inhibition [17]: 90%; inhibition [18]: 35%; inhibition [19]: 78%; inhibition [20]: 23%; inhibition [21]: 44%; inhibition [22]: 7%; inhibition [23]: 41%; inhibition [24]: 15%
CCOc1cc2nnc(C(N)=O)c(Nc3cccc(Cl)c3F)c2cc1N1CCN(C)CC1 |  | 18 (≈ 8.26 µg/mL) |  | 
COc1cc2nnc(C(N)=O)c(Nc3ccc(C)cc3F)c2cc1OC | 0.11 µM and 0.25 µM | < 1 |  | 
COc1cc2nnc(C(N)=O)c(Nc3cc(C)ccc3F)c2cc1OC | 0.2 µM and 0.21 µM | < 1 |  | 
COc1cc2nnc(C(N)=O)c(Nc3cc(C)ccc3F)c2cc1N1CCN(C)CC1 | 0.057 µM | 22 (≈ 9.34 µg/mL) |  | 
COc1cc2nnc(C(N)=O)c(Nc3ccc(C)cc3F)c2cc1N1CCN(C)CC1 | 0.025 µM |  |  | 
COc1cc2nnc(C(N)=O)c(Nc3ccc(F)cc3F)c2cc1N1CCN(C)CC1 |  | 290 (≈ 124 µg/mL) | 0.096 | 
COc1cc2nnc(C(N)=O)c(Nc3cccc(Cl)c3F)c2cc1N1CCN(C)CC1 | 0.021 µM | 110 (≈ 48.9 µg/mL) |  | 
CCOc1cc2nnc(C(N)=O)c(Nc3cccc(Cl)c3Cl)c2cc1N1CCN(C)CC1 |  | 10 (≈ 4.75 µg/mL) | < 0.017 | 
